The results in this text go back to patent US20260152527A1, “NOVEL MELANOCORTIN ANALOGS” (priority 2022, published 2026).

SMILES strings stand for the structures. Positions of bridges follow the written chain, without caps; N, C: chain ends. Non-standard residues stand in square brackets, D forms with d. Residues, ends and D or L forms follow the SMILES beside them. Triazole bridges read from a SMILES are 1,4-linked. *: point of attachment. Benzoyl(3,5-(OH)2) = O=C(c1cc(O)cc(O)c1)*; Lys(N3) = [N-]=[N+]=NCCCC[C@H](N)C(=O)O; dPhe(4-F) = N[C@H](Cc1ccc(F)cc1)C(=O)O; Nle = CCCC[C@H](N)C(=O)O; Pra = C#CC[C@H](N)C(=O)O

For data set [1] the following is noted: rabbit.
Text: To evaluate the effects of the peptide formulations following topical administration and subconjunctival injection a study in rabbits was undertaken. Animals were acclimated to the study and, upon completion of the acclimation period, each animal was physically examined for determination of suitability for study participation. Animals determined to be in good health were randomized into study groups to achieve averaged mean body weight in each group. (N=24; 3 animals per study group) Animals will be uniquely identified by corresponding cage card number and ear tag.
For topical ocular dosing the designated peptide formulations (35 L) were administered to the eye of each animal using a calibrated pipette. With the animal manually restrained, the upper eyelid of the eye was gently elevated to expose the cornea. Treatment was then be applied to the cornea without contacting the eye with the pipette tip. One topical drop was applied per eye for four days. Tissue collection (aqueous humor) occurred 30 minutes after last dose.
A veterinary ophthalmologist performed complete ocular examinations using a slit lamp biomicroscope and indirect ophthalmoscope to evaluate ocular surface morphology and anterior and posterior segment inflammation on all animals prior to injection to serve as a baseline for enrollment into the study as well as on specific study days. Animals were not tranquilized for the examinations.
At least 1.0 mL of whole blood was drawn from the marginal ear vein or cardiac puncture (terminal bleed only) into K2EDTA tubes for plasma collection. After collection, the tubes were gently mixed by inverting the tubes 5-8 times. Blood samples were stored on wet ice prior to plasma processing. The samples were centrifuged at 4° C. for 10 minutes at 2000 g in a swinging bucket refrigerated centrifuge. Within 20 minutes of the blood collection time, the clear plasma was transferred to prelabelled polypropylene tubes, snap frozen, and stored frozen at approximately −80° C.
Following euthanasia, eyes were enucleated and marked at the 12:00 position. Aqueous humor was removed via a 27 or 30 gauge syringe following a 10-15 second rinse with PBS and blot with Kimwipe, and snap frozen by immersing in liquid nitrogen. The whole globe was then snap frozen in liquid nitrogen and stored at −80° C. to be held for potential dissection. All samples were placed into individual vials and weighed. The plasma and aqueous humor were collected.
The peptides were evaluated for their ocular tolerability and pharmacokinetics following repeated (QID×4 days) topical instillation or a single subconjunctival injection in rabbits. The study examined penetration into the anterior chamber and concentrations in the plasma by measuring at a single time point.
Another data set has as its target T1, human recombinant MC5R (Homo sapiens, UniProt P33032).
T1 construct: host or cells: CHO-K1/Ga15
The data set is described as follows: Ca2+ signalling functional assay, MC5R stable cell line (CHO-K1/Ga15). Format: cell-based.

The nature of data set [2]: In vivo topical administration pharmacokinetics / tissue distribution of K173, rat. To be noted: four days of BID topical dosing. The protocol:
To evaluate the pharmacokinetics of the peptide formulations following topical administration a study in rats was undertaken.
Treatment was administered twice daily (BID) with approximately 6-8 hours between BID doses.
All animals underwent twice daily cage side clinical observations with particular attention paid to the eyes. Animals were not tranquilized for the examinations.
When animals were terminal, blood was collected by inserting a 25G needle into the heart and the animal was exsanguinated and the blood was collected into K2EDTA tubes for plasma collection. […] Once centrifuged, the clear plasma was transferred to a prelabelled polypropylene tube, snap frozen and stored at approximately −80° C.
Following euthanasia, eyes were enucleated and rinsed twice with fresh ice-cold PBS. […] The anterior segment and lens were removed and the neurosensory retina was dissected into pre-weighed 2 mL polypropylene tube, re-weighed and snap frozen. The brain was collected and weighted and the hypothalamus, hippocampus, and remining brain were dissected, placed in pre-weighted polypropylene tubes, re-weighed, and snap frozen. All tissues were stored at −80° C.
The concentrations of K173 in the aqueous humor, retina, hypothalamus, hippocampus, remaining brain tissue, and plasma was measured and the values are provided in Table 7.

The test system of data set [3] is corneal edema following Descemetorhexis without Endothethelial Keratoplasty (DWEK) surgery. Format: in vivo. To be noted: rabbit. The protocol: To evaluate the efficacy of a peptide formulation in reducing corneal edema following Descemetorhexis without Endothethelial Keratoplasty (DWEK) surgery a study in rabbits was undertaken. […] A Table summarizing the parameters regarding the study is provided in FIGS. 5A-5B and a schematic exemplifying the timeline of the study is provided in FIG. 6.
Treatment was administered once (QD) or twice daily (BID) with approximately 6-8 hours between each BID dose for 28 days.
The rabbits were subjected to a surgical procedure prior to administering topical treatment. The animals received buprenorphine (0.01-0.05 mg/kg SC) and were sedated immediately prior to the procedure with ketamine/xylazine cocktail (20-50/4-10 mg/kg IM). Aseptic precautions were taken for the surgical procedure. […] Sterile eyewash was then used to irrigate the ocular surface of the left eye. […] The animal's corneal epithelium was marked with a circular ring (5 mm) to create a template for resection of the host tissue. […] Descemet's membrane was scored peripherally using a reverse Terry-Sinskey hook, and then Descemet's membrane was peeled from the overlying stroma. Descemet's membrane was removed using forceps. Viscoelastic was removed by Irrigation Aspiration (IA) using balanced salt saline (BSS). […]
In addition, tonometry was performed by a veterinary ophthalmologist or a trained technician. Intraocular pressure (IOP) was measured in both eyes of all animals at days 2, 4, 8, 15, 22, and 29. […] Six consecutive measurements were obtained and the average IOP shown on the display was recorded. Three independent measurements were obtained and recorded for each eye.
Pachymetry was also performed by a veterinary ophthalmologist or trained technician on days 2, 4, 8, 15, 22, and 29. Corneal thickness was measured in both eyes using an ultrasonic pachymeter. […]
Optical coherence tomography (OS only) was also measured in the animals. […]

T1 sequence (P33032 whole entry): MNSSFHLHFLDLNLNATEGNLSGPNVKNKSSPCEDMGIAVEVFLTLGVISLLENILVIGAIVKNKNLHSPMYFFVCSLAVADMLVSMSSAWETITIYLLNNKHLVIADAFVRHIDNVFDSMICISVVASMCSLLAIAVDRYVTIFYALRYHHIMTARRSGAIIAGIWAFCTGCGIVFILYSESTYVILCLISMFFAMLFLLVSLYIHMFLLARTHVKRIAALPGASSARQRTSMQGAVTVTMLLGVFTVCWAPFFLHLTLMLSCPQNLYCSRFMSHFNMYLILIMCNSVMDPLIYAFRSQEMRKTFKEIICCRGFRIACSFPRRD
Experimental for human recombinant MC5R: The Ca^2+ signalling functional assay was performed on a human recombinant MC5R stable cell line (CHO-K1/Ga15, GenScript). The cells were cultured at 37° C. and 5% C02 with culture medium (90% Ham's F-12K (Kaighn's)+10% FBS+400 μg/mL G418+100 μg/mL Hygromycin B). Cells were washed with PBS and then detached by incubation with 0.05% (w/v) Trypsin EDTA at 37° C. for 2 to 5 mins. Detached cells were suspended in Ham's F-12K (Kaighn's) (containing 10% FBS) and a 50 μL cell suspension is seeded into each well of a 384-well assay plate at a density of 15,000 cells/well. Cells were allowed to settle overnight at 37° C., 5% CO2. […] Then, 100 nL of compounds were transferred to the compound plate by the Echo machine. Thirty microliter assay buffer was added to the compounds plate and then shaken for 20-40 minutes. The plates were placed on the FLIPR and 15 μL of the compound was added to each well, then calcium flux signal was measured.

A word on the EC50: it is the concentration giving half of the maximal effect. What is called IC50 is the point on the concentration scale where inhibition reaches its midpoint. For `CCCC[C@H](NC(=O)c1cc(O)cc(O)c1)C(=O)N[C@H]1CCCCn2cc(nn2)C[C@@H](C(N)=O)NC(=O)[C@H](Cc2c[nH]c3ccccc23)NC(=O)[C@H](CCCNC(=N)N)NC(=O)[C@@H](Cc2ccc(F)cc2)NC(=O)[C@H](Cc2c[nH]cn2)NC1=O` [KR-072, HyBA-Nle-[Lys(N3)-His-Dphe(4-F)-Arg-Trp-Pra]-NH2] ({Benzoyl(3,5-(OH)2)}-[Nle][Lys(N3)]H[dPhe(4-F)]RW[Pra]-NH2; triazole 2-7), the “Topical Ocular Permeability (nM ± SEM)” value in data set [1] amounted to 15.5 ± 2.6 nM. For the same compound, the EC50 at human recombinant MC5R was 78 nM. Further, at human recombinant MC5R (calcium flux functional assay), the IC50 came out at 78 nM. Moreover, the “K173 level in the neural retina” value in data set [2] is given as “high levels”. Besides, the “K173 presence in brain” value in data set [2] (hypothalamus, hippocampus, remaining brain) is recorded as “found in all parts of the brains”. In addition, the “corneal edema by stromal thickness measurements (OCT)” value in data set [3] (DWEK, topical 0.05, 0.1, 0.5 mg/mL QD vs vehicle) is “decrease corneal edema”. Further, the “wound healing / rate of wound closure (corneal flat mount analysis)” value in data set [3] (topical 0.1 mg/mL) is listed as “enhanced wound healing”. The “efficacy on corneal stromal thickness by OCT” value in data set [3] (two lowest treatment options 0.05 mg/mL or 0.1 mg/mL) is listed as “Statistically significant efficacy”.
